Several values for one entry are separate records, joined by “and”; a condition that tells them apart may be missing. Equal entries are not always repeated. Toxic doses and inconclusive results are not listed. How the source made its calls: active means survival T/C of 150% or more; inactive means T/C below 125% in these data. Residues, ends and D or L forms follow the SMILES beside them. *: point of attachment. Octanoyl = CCCCCCCC(=O)*
Test system: CD2F1 mice, L1210 leukemia ip, survival T/C
Experiment: NCI In Vivo Anticancer Drug Screen. Data for tumor model L1210 Leukemia (intraperitoneal) in CD2F1 (CDF1) mice
Conditions: higher = longer survival
Method in brief: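 Compound-dosed mice with transplantable tumor versus matched vehicle controls; endpoint ratio T/C reported.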

[1] = endpoint: mean survival time, dose: 100.0 mg/kg/injection, schedule: Q01DX001 (ip), vehicle: saline with Tween-80
[2] = endpoint: mean survival time, dose: 200.0 mg/kg/injection, schedule: Q01DX001 (ip), vehicle: saline with Tween-80
[3] = endpoint: mean survival time, dose: 100.0 mg/kg/injection, schedule: Q04DX003 (ip), vehicle: saline with Tween-80
[4] = endpoint: mean survival time, dose: 200.0 mg/kg/injection, schedule: Q04DX003 (ip), vehicle: saline with Tween-80
[5] = endpoint: mean survival time, dose: 400.0 mg/kg/injection, schedule: Q04DX003 (ip), vehicle: saline with Tween-80
[6] = endpoint: mean survival time, dose: 200.0 mg/kg/injection, schedule: Q01DX001 (ip), vehicle: saline
[7] = endpoint: mean survival time, dose: 12.5 mg/kg/injection, schedule: Q01DX009 (ip), vehicle: saline with Tween-80
[8] = endpoint: mean survival time, dose: 50.0 mg/kg/injection, schedule: Q01DX009 (ip), vehicle: saline with Tween-80
[9] = endpoint: mean survival time, dose: 12.5 mg/kg/injection, schedule: Q01DX009 (ip), vehicle: Klucel (hydroxypropylcellulose) (HPC)
[10] = endpoint: mean survival time, dose: 25.0 mg/kg/injection, schedule: Q01DX009 (ip), vehicle: Klucel (hydroxypropylcellulose) (HPC)
[11] = endpoint: mean survival time, dose: 50.0 mg/kg/injection, schedule: Q01DX009 (ip), vehicle: Klucel (hydroxypropylcellulose) (HPC)
[12] = endpoint: mean survival time, dose: 200.0 mg/kg/injection, schedule: Q01DX009 (ip), vehicle: Klucel (hydroxypropylcellulose) (HPC)
[13] = endpoint: mean survival time, dose: 100.0 mg/kg/injection, schedule: Q04DX003 (ip), vehicle: saline
[14] = endpoint: mean survival time, dose: 25.0 mg/kg/injection, schedule: Q01DX009 (ip), vehicle: saline with Tween-80
[15] = endpoint: mean survival time, dose: 100.0 mg/kg/injection, schedule: Q01DX009 (ip), vehicle: saline with Tween-80
[16] = endpoint: mean survival time, dose: 200.0 mg/kg/injection, schedule: Q01DX009 (ip), vehicle: saline with Tween-80
[17] = endpoint: mean survival time, dose: 400.0 mg/kg/injection, schedule: Q01DX009 (ip), vehicle: saline with Tween-80
[18] = endpoint: median survival time, dose: 50.0 mg/kg/injection, schedule: Q04DX002 (ip), vehicle: saline with Tween-80
[19] = endpoint: median survival time, dose: 100.0 mg/kg/injection, schedule: Q04DX002 (ip), vehicle: saline with Tween-80
[20] = endpoint: median survival time, dose: 200.0 mg/kg/injection, schedule: Q04DX002 (ip), vehicle: saline with Tween-80

Measured: T/C

Nc1ncnc2nc(SCc3cccc([N+](=O)[O-])c3)[nH]c12
inactive: [1] 96 % of control | [2] 90 % of control | endpoint: mean survival time, dose: 400.0 mg/kg/injection, schedule: Q01DX001 (ip), vehicle: saline with Tween-80 90 % of control

Cc1cc(C)c([S-])c(C)c1.[Cu+]
inactive: endpoint: mean survival time, dose: 4.7 mg/kg/injection, schedule: Q04DX003 (ip), vehicle: saline 94 % of control | endpoint: mean survival time, dose: 9.4 mg/kg/injection, schedule: Q04DX003 (ip), vehicle: saline 94 % of control

O=C(O)c1c(Cl)c(Cl)c(Cl)c(Cl)c1Cl
inactive: [3] 98 % of control | [4] 98 % of control | [5] 98 % of control

CC(N)CCCO (stereo not drawn)
inactive: [6] 109 % of control | endpoint: mean survival time, dose: 400.0 mg/kg/injection, schedule: Q01DX001 (ip), vehicle: saline 94 % of control

CN(C)c1ccc(N=Nc2ccc(Cl)c(Cl)c2)cc1
inactive: [3] 98 % of control | [4] 95 % of control | [5] 96 % of control

O=C(Sc1ccc([N+](=O)[O-])cc1)C(=O)Sc1ccc([N+](=O)[O-])cc1
inactive: [7] 91 % of control | [8] 98 % of control

Cc1ccc(S(=O)(=O)N/N=C/C(Br)=C(/Br)C(=O)O)cc1
inactive: endpoint: mean survival time, dose: 3.12 mg/kg/injection, schedule: Q01DX009 (ip), vehicle: Klucel (hydroxypropylcellulose) (HPC) 104 % of control | endpoint: mean survival time, dose: 6.25 mg/kg/injection, schedule: Q01DX009 (ip), vehicle: Klucel (hydroxypropylcellulose) (HPC) 112 % of control | [9] 113 % of control | [10] 115 % of control and 105 % of control | [11] 113 % of control and 102 % of control | endpoint: mean survival time, dose: 100.0 mg/kg/injection, schedule: Q01DX009 (ip), vehicle: Klucel (hydroxypropylcellulose) (HPC) 120 % of control and 108 % of control | [12] 104 % of control

CCCCC1CCC(N)CC1 (stereo not drawn)
inactive: [13] 96 % of control

CC(C)(C)OC(=O)NC(CSC(c1ccccc1)(c1ccccc1)c1ccccc1)C(=O)O (stereo not drawn)
inactive: endpoint: mean survival time, dose: 75.0 mg/kg/injection, schedule: Q01DX001 (ip), vehicle: saline 93 % of control

CCN(CC)CCN1CC2C3C=CC(C3)C2C1 (stereo not drawn)
inactive: [14] 97 % of control | [8] 100 % of control | [15] 102 % of control and 104 % of control

CSc1nc(Cl)cc(/N=C/N(C)C)n1
inactive: [15] 102 % of control | [16] 98 % of control

Nc1ccc(NC(=O)Nc2ccc(N)cc2)cc1
inactive: endpoint: mean survival time, dose: 3.0 mg/kg/injection, schedule: Q01DX009 (ip), vehicle: saline sonified 96 % of control | endpoint: mean survival time, dose: 6.0 mg/kg/injection, schedule: Q01DX009 (ip), vehicle: saline sonified 94 % of control | endpoint: mean survival time, dose: 12.0 mg/kg/injection, schedule: Q01DX009 (ip), vehicle: saline sonified 96 % of control | endpoint: mean survival time, dose: 12.5 mg/kg/injection, schedule: Q04DX003 (ip), vehicle: saline with Tween-80 104 % of control

COC1C(O)C(O)C(O)C(O)C1O (stereo not drawn)
inactive: [13] 95 % of control | endpoint: mean survival time, dose: 200.0 mg/kg/injection, schedule: Q04DX003 (ip), vehicle: saline 92 % of control | endpoint: mean survival time, dose: 400.0 mg/kg/injection, schedule: Q04DX003 (ip), vehicle: saline 93 % of control

CCCCCCCC(=O)NCC(=O)NCC(=O)O (Octanoyl-Gly-Gly-OH)
inactive: endpoint: mean survival time, dose: 6.25 mg/kg/injection, schedule: Q01DX001 (ip), vehicle: Klucel (hydroxypropylcellulose) (HPC) 97 % of control | endpoint: mean survival time, dose: 12.5 mg/kg/injection, schedule: Q01DX001 (ip), vehicle: Klucel (hydroxypropylcellulose) (HPC) 95 % of control | endpoint: mean survival time, dose: 25.0 mg/kg/injection, schedule: Q01DX001 (ip), vehicle: Klucel (hydroxypropylcellulose) (HPC) 100 % of control | endpoint: mean survival time, dose: 50.0 mg/kg/injection, schedule: Q01DX001 (ip), vehicle: Klucel (hydroxypropylcellulose) (HPC) 93 % of control

NC(=O)n1ccnc1
inactive: endpoint: mean survival time, dose: 50.0 mg/kg/injection, schedule: Q01DX001 (ip), vehicle: saline 96 % of control | endpoint: mean survival time, dose: 100.0 mg/kg/injection, schedule: Q01DX001 (ip), vehicle: saline 98 % of control | [6] 108 % of control

CN(C)[C@@H]1C(=O)C(C(=O)NCNc2nc3n[nH]nc3c(=O)[nH]2)=C(O)[C@@]2(O)C(=O)C3=C(O)c4c(O)cccc4[C@@](C)(O)[C@H]3C[C@@H]12
inactive: [8] 117 % of control | [15] 123 % of control | [17] 94 % of control

O=c1[nH]cnc2c1nc(NCc1ccccc1)n2C1OC(CO)C(O)C1O (stereo not drawn)
inactive: endpoint: mean survival time, dose: 12.5 mg/kg/injection, schedule: Q01DX005 (ip), vehicle: distilled water + Tween-80 98 % of control | endpoint: mean survival time, dose: 25.0 mg/kg/injection, schedule: Q01DX005 (ip), vehicle: distilled water + Tween-80 96 % of control | endpoint: mean survival time, dose: 50.0 mg/kg/injection, schedule: Q01DX005 (ip), vehicle: distilled water + Tween-80 96 % of control | endpoint: mean survival time, dose: 100.0 mg/kg/injection, schedule: Q01DX005 (ip), vehicle: distilled water + Tween-80 101 % of control | endpoint: mean survival time, dose: 150.0 mg/kg/injection, schedule: Q01DX005 (ip), vehicle: distilled water + Tween-80 98 % of control

c1ccc(C2NC2c2ccccc2)cc1 (stereo not drawn)
inactive: [18] 100 % of control | [19] 100 % of control | [20] 100 % of control | endpoint: median survival time, dose: 400.0 mg/kg/injection, schedule: Q04DX002 (ip), vehicle: saline with Tween-80 100 % of control

O=Cc1c2ccc(Cl)cc2nc2ccc(Cl)cc12
inactive: [3] 101 % of control | [4] 98 % of control | [5] 94 % of control

O=C(Nc1ccc(F)cc1)Nc1ccc(Cl)cc1
inactive: [15] 97 % of control | [16] 100 % of control | [17] 103 % of control

N/C(=N/N=C/c1cc(Br)cc(Br)c1O)NO
inactive: endpoint: median survival time, dose: 12.5 mg/kg/injection, schedule: Q01DX005 (ip), vehicle: suspension in saline 105 % of control | endpoint: median survival time, dose: 25.0 mg/kg/injection, schedule: Q01DX005 (ip), vehicle: suspension in saline 100 % of control | endpoint: median survival time, dose: 50.0 mg/kg/injection, schedule: Q01DX005 (ip), vehicle: suspension in saline 105 % of control | endpoint: median survival time, dose: 100.0 mg/kg/injection, schedule: Q01DX005 (ip), vehicle: suspension in saline 116 % of control

CN1C(=O)CN=C(c2ccccc2)c2cc(Cl)ccc21
inactive: [9] 100 % of control | [10] 104 % of control | [11] 100 % of control | [12] 90 % of control

COC(=O)c1ccc[n+](CCc2c[nH]c3ccccc23)c1
inactive: [7] 92 % of control | [14] 97 % of control | [8] 96 % of control and 107 % of control | [1] 101 % of control | [2] 96 % of control

COC(=O)C12C=CC=CC3C(C=C1)NC(=O)C32 (stereo not drawn)
inactive: endpoint: median survival time, dose: 25.0 mg/kg/injection, schedule: Q04DX002 (ip), vehicle: saline with Tween-80 122 % of control | [18] 100 % of control | [19] 100 % of control | [20] 111 % of control

CC(C)(OC(=O)C(NC=O)C(C)(C)S)OC(=O)C(NC=O)C(C)(C)S (stereo not drawn)
inactive: [15] 101 % of control | [16] 101 % of control | [17] 101 % of control

NCC(OC1CCCCC1)C(Cl)(Cl)Cl (stereo not drawn)
inactive: [3] 101 % of control | [4] 93 % of control

— PubChem BioAssay AID256 (DTP/NCI, 2004)
